Measurements from US5453426A, “Sulfur-containing xanthine derivatives as adenosine antagonists” (priority 1994, dated 1995).
Where two headings read alike, the source gives them in different places.

How the values were obtained:
cardiac depression = details: background, ref 9b; cited from earlier work
tracheal relaxation = details: background, ref 9a, cited from earlier work; for cardiac or behavioral stimulation: accompanying tracheal relaxation
A1 -adenosine receptors [1] = details: background; cited from earlier work
A1 adenosine receptors = molecular target: T1, A1 adenosine receptors (Rattus norvegicus, UniProt P25099); assay: Inhibition of binding of [3H]N6-phenylisopropyladenosine to A1 adenosine receptors in rat cerebral cortical membranes; details: for Ki (A2)/Ki (A1): ratio of A2 (rat striatum) to A1 (rat cortex) Ki; for A1 affinity/potency, in words: relative to the analogs named in the text; for fold less potent at A1-receptors: 6-thio analog versus oxygen analog (CPX or DPX, 24)
T1 construct: A1 adenosine receptors in rat cerebral cortical membranes; from tissue; host or cells: rat cerebral cortex membranes
T1 sequence (P25099 1-326): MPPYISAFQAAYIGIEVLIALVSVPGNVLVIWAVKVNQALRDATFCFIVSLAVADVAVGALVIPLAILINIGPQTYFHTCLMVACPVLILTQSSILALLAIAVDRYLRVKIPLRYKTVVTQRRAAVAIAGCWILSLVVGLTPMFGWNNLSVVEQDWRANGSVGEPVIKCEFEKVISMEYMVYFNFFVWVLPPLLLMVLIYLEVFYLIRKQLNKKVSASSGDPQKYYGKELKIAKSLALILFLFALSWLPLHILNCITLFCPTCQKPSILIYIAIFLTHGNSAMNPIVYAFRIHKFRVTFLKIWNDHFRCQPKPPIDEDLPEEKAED

A2 adenosine receptors [2] = molecular target: T2, A2 adenosine receptors (Rattus norvegicus, UniProt P30543); assay: Inhibition of binding of [3H]N-ethylcarboxamidoadenosine to A2-adenosine receptors in rat striatal membranes; details: for A2 affinity/potency, in words: relative to the analogs named in the text
Method: Affinity at A1 - and A2 -adenosine receptors was measured in competitive binding assays, using as radioligands [^3 H]N^6 -phenylisopropyladenosine^17 (with rat cerebral cortical membranes) and [^3 H]5'-N-ethylcarboxamidoadenosine (with rat striatal membranes),^18 respectively.
N^6 -Cyclopentyladenosine was present at 50 nM to inhibit binding of the ligand at A1 -adenosine receptors. Inhibition of binding by a range of concentrations of xanthines was assessed in triplicate in at least three separate experiments. IC50 -values were converted to Ki-values by the method of Bruns et al,^18 using a conversion factor derived from the affinity of [^3 H]N-ethylcarboxamidoadenosine at A2 receptors and the Cheng-Prusoff equation.^19

A2 adenosine receptors [3] = molecular target: T2, A2 adenosine receptors; design: A2 -adenosine receptors in rat striatal membranes; from tissue; host or cells: rat striatum membranes; details: cited from earlier work
A1 -adenosine receptors [4] = details: ref 10a; cited from earlier work
[5] = rat cortical membranes, [3H]PIA, single determination in triplicate or average of three ± S.E.M., read-out: Ki A1-receptors
[6] = values taken from Bruns et al. (ref 18)
[7] = read-out: Ki A2-receptors, rat striatal membranes, [3H]NECA, single determination in triplicate or average of three ± S.E.M.

T2 sequence (P30543 whole entry): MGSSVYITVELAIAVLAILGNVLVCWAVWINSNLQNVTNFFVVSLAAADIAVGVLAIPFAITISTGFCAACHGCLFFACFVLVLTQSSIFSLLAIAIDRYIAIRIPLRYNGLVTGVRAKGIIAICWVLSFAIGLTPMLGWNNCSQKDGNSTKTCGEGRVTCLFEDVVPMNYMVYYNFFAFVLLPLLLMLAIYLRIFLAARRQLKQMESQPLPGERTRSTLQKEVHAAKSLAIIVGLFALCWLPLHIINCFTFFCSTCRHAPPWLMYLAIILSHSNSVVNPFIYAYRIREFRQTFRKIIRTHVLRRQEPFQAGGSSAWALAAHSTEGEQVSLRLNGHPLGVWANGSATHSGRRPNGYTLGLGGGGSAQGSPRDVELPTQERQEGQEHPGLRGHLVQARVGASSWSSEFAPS

Row | SMILES | Ki (A1 adenosine receptors; [5]) | Ki (A2)/Ki (A1) (A1 adenosine receptors) | Ki (A2 adenosine receptors [2]) | further results
1 | Cn1c(=S)c2c(ncn2C)n(C)c1=O [6-thiocaffeine] |  |  |  | cardiac effect (cardiac depression): cause cardiac depression rather than stimulation; cardiac or behavioral stimulation (tracheal relaxation): without cardiac or behavioral stimulation; tracheal relaxation (tracheal relaxation): induce tracheal relaxation
2 | Cn1c(=S)c2[nH]cnc2n(C)c1=O [6-thiotheophylline] |  |  |  | cardiac effect (cardiac depression): cause cardiac depression rather than stimulation; cardiac or behavioral stimulation (tracheal relaxation): without cardiac or behavioral stimulation; tracheal relaxation (tracheal relaxation): induce tracheal relaxation
3 | CCCn1c(=O)c2[nH]c(C3CCCC3)nc2n(CCC)c1=O [Compound 2b, 8-cyclopentyl-1,3-dipropylxanthine] |  |  |  | potency in binding at A1-adenosine receptors versus theophylline (A1 -adenosine receptors [1]): more than four orders of magnitude more potent than theophylline
4 | CCCn1c(=O)c2[nH]c(-c3ccc(OCC(=O)NCCN)cc3)nc2n(CCC)c1=O [Compound 3, 8-(4-(2-amino-ethylaminocarbonylmethyloxy)phenyl)-1,3-dipropylxanthine] |  |  |  | potency in binding at A1-adenosine receptors versus theophylline (A1 -adenosine receptors [1]): more than four orders of magnitude more potent than theophylline
5 | Cn1c(=O)c2[nH]c(C3CCCC3)nc2n(C)c1=S [Compound 13] | 8 nM | 170 | 1390 nM | 
6 | CCCn1c(=O)c2[nH]c(C3CCCC3)nc2n(CCC)c1=S [Compound 14] | 0.655 ± 0.058 nM | 479 | 314 ± 62 nM | A1-selectivity, in words (A1 adenosine receptors; A1 versus A2 binding, relative to oxygen analogs): a greater margin of A1 -selectivity; A1 affinity/potency, in words (A1 adenosine receptors): the A1 affinity was enhanced by the thio substitution
7 | Cn1c(=O)c2[nH]c(-c3ccco3)nc2n(C)c1=O [Compound 15, reference compound] |  | 7.94 |  | Ki (A2 adenosine receptors [3]; [6]): 2780 nM
8 | Cn1c(=O)c2nc(-c3ccoc3)[nH]c2n(C)c1=O [Compound 16, reference compound] |  | 13.6 |  | Ki (A2 adenosine receptors [3]; [6]): 984 ± 70 nM
9 | Cn1c(=O)c2[nH]c(-c3cccs3)nc2n(C)c1=O [Compound 17] | 233 ± 48.6 nM | 6.97 | 1630 nM | 
10 | Cn1c(=O)c2[nH]c(-c3ccsc3)nc2n(C)c1=O [Compound 18] | 152 ± 27 nM | 5.53 | 841 ± 109 nM | A2 affinity/potency, in words (A2 adenosine receptors [2]): Preference for 3-thienyl derivatives was evident particularly at the A2 -subtype
11 | CCCn1c(=O)c2[nH]c(-c3cccs3)nc2n(CCC)c1=O [Compound 19] | 16.1 ± 1.96 nM | 23.6 | 381 ± 27.7 nM | 
12 | CCCn1c(=O)c2[nH]c(-c3ccsc3)nc2n(CCC)c1=O [Compound 20] | 10 ± 0.03 nM | 12.1 | 121 ± 18.2 nM | A2 affinity/potency, in words (A2 adenosine receptors [2]): Preference for 3-thienyl derivatives was evident particularly at the A2 -subtype
13 | Cn1c(=O)c2nc(-c3cccs3)[nH]c2n(C)c1=S [Compound 21] | 221 ± 43.3 nM | 7.87 |  | Ki (A2 adenosine receptors [2]; [7]): 1740 nM
14 | CCCn1c(=O)c2[nH]c(-c3ccc(OCC(=O)O)cc3)nc2n(CCC)c1=O [Compound 27] | 58 ± 3 nM | 37.8 |  | Ki (A2 adenosine receptors [2]; [7]): 2200 nM
15 | CCCn1c(=O)c2[nH]c(-c3ccc(OCC(=O)O)cc3)nc2n(CCC)c1=S [Compound 28, 8-(4-(carboxymethyloxy)phenyl)-1,3-dipropyl-2-thioxanthine] | 53.8 ± 7.1 nM | 5.86 | 315 ± 60.8 nM | enhancement of potency at A2-receptors by the 2-thio substitution (A2 adenosine receptors [2]; 28 versus oxygen analog 27): 7 fold
16 | CCCn1c(=O)c2[nH]c(-c3ccc(OCC(=O)OCC)cc3)nc2n(CCC)c1=O [Compound 29] | 42 ± 3 nM | > 238 | > 10000 nM | 
17 | CCCn1c(=O)c2[nH]c(-c3ccc(OCC(=O)OCC)cc3)nc2n(CCC)c1=S [Compound 30] | 6.78 ± 0.64 nM | > 740 | > 5000 nM | 
18 | CCCn1c(=O)c2[nH]c(-c3ccc(OCC(=O)NCCN)cc3)nc2n(CCC)c1=S [Compound 31] | 2.69 ± 0.77 nM | 9.8 | 26.3 ± 1.76 nM | A1 affinity/potency, in words (A1 adenosine receptors): with less affinity at A1 -receptors than the corresponding oxygen analog; A2 affinity/potency, in words (A2 adenosine receptors [2]): enhanced over the oxygen analog
19 | CCCn1c(=O)c2[nH]c(-c3ccc(OCC(=O)NCCNC)cc3)nc2n(CCC)c1=S [Compound 33] | 2.4 ± 0.28 nM |  |  | 

Row | SMILES | Ki (A1 adenosine receptors; [5]) | Ki (A2)/Ki (A1) (A1 adenosine receptors) | Ki (A2 adenosine receptors [2]) | further results
20 | CCCn1c(=O)c2[nH]c(-c3ccc(OCC(=O)NCCN(C)C)cc3)nc2n(CCC)c1=O [Compound 34] |  | 1.8 | 5.03 ± 0.54 nM | 
21 | CCCn1c(=O)c2[nH]c(-c3ccc(OCC(=O)NCCN(C)C)cc3)nc2n(CCC)c1=S [Compound 35] | 2.55 ± 0.6 nM | 11 | 27.9 ± 7.5 nM | 
22 | CCCn1c(=O)c2[nH]c(-c3ccc(OCC(=O)N(C)CCN(C)C)cc3)nc2n(CCC)c1=S [Compound 37, (8-[2-Dimethylaminoethyl[N-methylamino[carbonyl[methyl[oxyphenyl]]]]]-2-thio-1,3-dipropylxanthine)] | 2.57 ± 0.67 nM |  | 24.5 ± 8.4 nM | 
23 | CCCn1c(=O)c2[nH]c(-c3ccc(OCC(=O)NCCNC(=O)[C@@H](CCCCNC(=O)OCc4ccccc4)NC(=O)OC(C)(C)C)cc3)nc2n(CCC)c1=S [Compound 39] |  | 10 | 870 nM | 
24 | CCCn1c(=O)c2[nH]c(-c3ccc(OCC(=O)NCCNC(=O)[C@H](N)CCCCNC(=O)OCc4ccccc4)cc3)nc2n(CCC)c1=O [Compound 40] |  | 30 | 191 ± 13 nM | 
25 | CCCn1c(=O)c2[nH]c(-c3ccc(OCC(=O)NCCNC(=O)[C@H](N)CCCCNC(=O)OCc4ccccc4)cc3)nc2n(CCC)c1=S [Compound 41] |  | 36 | 322 ± 17 nM | 
26 | CCCn1c(=O)c2[nH]c(-c3ccc(OCC(=O)NCCNC(=O)[C@H](N)CCCCN)cc3)nc2n(CCC)c1=O [Compound 42] | 0.87 ± 0.09 nM | 210 |  | Ki (A2 adenosine receptors [2]; [7]): 180 nM
27 | CCCn1c(=O)c2[nH]c(-c3ccc(OCC(=O)NCCNC(=O)[C@H](N)CCCCN)cc3)nc2n(CCC)c1=S [Compound 43] |  | 3.6 | 46.8 ± 9.4 nM | 
28 | CCCn1c(=O)c2[nH]c(-c3ccc(OCC(=O)NCCNC(=O)CCCCCCC(=O)ON4C(=O)CCC4=O)cc3)nc2n(CCC)c1=O [Compound 44] |  | 56 |  | irreversible inhibitor of A1-adenosine receptors at concentrations (A1 -adenosine receptors [4]): greater than 50 nM; Ki (A2 adenosine receptors [3]; values taken from Jacobson et al. (ref 10)): 207 ± 57 nM
29 | CCCn1c(=O)c2nc(-c3ccc(OCC(=O)NCCNC(=O)CCCCCCC(=O)ON4C(=O)CCC4=O)cc3)[nH]c2n(CCC)c1=S [Compound 45, N-Succinimidyl 8-[2-[4-(6-Carboxy-n-hexyl)carbonylaminoethyl[amino[carbonyl[methyloxyphenyl]]]]]-1,3-dipropyl-2-thioxanthine] |  |  |  | Ki (A1 adenosine receptors): 33.5 nM
30 | CCCn1c(=O)c2[nH]c(-c3ccc(OCC(=O)NCCNC(=O)Cc4cccs4)cc3)nc2n(CCC)c1=O [Compound 46] | 18.3 ± 3 nM | 8.1 | 147 ± 5 nM | 
31 | CCCn1c(=O)c2[nH]c(-c3ccc(OCC(=O)NCCNC(=O)Cc4ccc(I)s4)cc3)nc2n(CCC)c1=O [Compound 48] | 11.3 ± 1.5 nM | 10.3 | 116 ± 25 nM | 
32 | CCCn1c(=O)c2[nH]c(-c3ccc(OCC(=O)NCCNC(=O)CCCCCCC(=O)NCc4cccs4)cc3)nc2n(CCC)c1=O [Compound 49] | 7.44 ± 0.98 nM | 85 |  | Ki (A2 adenosine receptors [2]; [7]): 630 ± 160 nM
33 | Cn1c(=S)c2[nH]c(C3CCCC3)nc2n(C)c1=S [Compound 52] | 40.5 ± 6.6 nM | 285 | 11500 nM | 
34 | CCCn1c(=S)c2[nH]c(C3CCCC3)nc2n(CCC)c1=S [Compound 53] | 4.87 ± 0.82 nM | 572 | 2780 nM | A1 affinity/potency, in words (A1 adenosine receptors): intermediate in potency between the corresponding 2-thio and 6-thio analogs; A2 affinity/potency, in words (A2 adenosine receptors [2]): intermediate in potency between the corresponding 2-thio and 6-thio analogs
35 | Cn1c(=S)c2[nH]c(C3CCCC3)nc2n(C)c1=O [Compound 54] | 202 ± 26 nM | 44.4 | 8980 nM | 
36 | CCCn1c(=S)c2[nH]c(C3CCCC3)nc2n(CCC)c1=O [Compound 55, 8-cyclopentyl-1,3-dipropyl-6-thioxanthine] | 15.5 ± 1.5 nM | 217 | 3360 nM | fold less potent at A1-receptors (A1 adenosine receptors): 17 fold
37 | Cn1c(=S)c2[nH]c(-c3ccccc3)nc2n(C)c1=O [Compound 56] | 1380 nM | 8.18 | 11300 nM | 
38 | CCn1c(=S)c2[nH]c(-c3ccccc3)nc2n(CC)c1=O [Compound 57] | 1010 nM | 3.47 | 3510 nM | fold less potent at A1-receptors (A1 adenosine receptors): 23 fold; fold less potent at A2-receptors (A2 adenosine receptors [2]; 6-thio analog 57 versus DPX, 24): 12 fold
